Like-named read-outs stand apart in the source and are kept apart here.
Experiments:
[1] = Cell viability by MTT assay (cytotoxicity), Vero-E6; settings: African green monkey, Vero-E6 cells
[2] = system: SARS-CoV-2 (MAD-6); experiment: microbe, parasite or virus in culture; format: cell-based; settings: Severe acute respiratory syndrome coronavirus 2, Caco-2
[3] = system: HCoV-229E-GFP; format: cell-based
[4] = system: SARS-CoV-2 (MAD-6); experiment: microbe, parasite or virus in culture; format: cell-based; settings: Severe acute respiratory syndrome coronavirus 2, Vero C1008
[5] = system: HCoV-229E-GFP
[6] = system: FMDV; settings: mouse, in vivo, 100 mg/kg; cited from earlier work
[7] = system: SARS-CoV-2 MAD-6
[8] = system: SARS-CoV-2; experiment: microbe, parasite or virus in culture; format: cell-based; settings: for IC50: Severe acute respiratory syndrome coronavirus 2, Vero C1008
[9] = Cell viability by MTT assay (cytotoxicity), Caco-2; settings: human, Caco-2 cells
[10] = system: HCoV-229E-GFP; experiment: organism not typed; format: cell-based
[11] = system: foot-and-mouth disease virus (FMDV); settings: cited from earlier work
[12] = system: HCoV-229E-GFP; format: cell-based; remark: listed apart in the source
[13] = Cell viability by MTT assay (cytotoxicity), Huh-7; settings: human, Huh-7 cells

For CCCCCCCCCCCCOC(=O)c1cc(O)c(O)c(O)c1 [LG, Lauryl Gallate], which CC50 at 24 h [1] is on record?
The CC50 at 24 h was 90.1 µM.

What about the IC50 [2] of the same molecule?
The IC50 was 2.98 µM.

What about the “decrease in the HCoV-229E-GFP yield” value [3] of the same molecule?
Its value is “more than 2 log.u”.

And the IC50 [4]?
Its IC50 is 1.28 µM.

What about the “direct virucidal effect on the virus particle” value [5] of the same molecule?
Its value is “No direct toxicity”.

What about the clinical signs [6] of the same molecule?
The clinical signs was “reduction”.

And the mortality [6]?
Its mortality is “reduction”.

And the “viral RNA copies in different tissues” value [6]?
The value was “reduction”.

And the “direct virucidal effect on the virus particle” value [7]?
The value was “No direct toxicity”.

And the SI [8]?
Its SI is 70,9.

And the IC50 [8]?
The IC50 was 1.22 µM.

And the CC50 at 24 h [9]?
The CC50 at 24 h was 97.1 µM.

And the “reduction of the HCoV-229E-GFP infection” value [10]?
Its value is “up to 2 log.u”.

And the “reduction of the virus productivity” value [11]?
The value was “up to 2 log.u”.

What about the IC50 [12] of the same molecule?
The IC50 was 2.05 µM.

What about the CC50 at 24 h [13] of the same molecule?
The CC50 at 24 h was 83.1 µM.

Which “reduction of the HCoV-229E-GFP infection” value [10] does the source give for CCCCCCCCOC(=O)c1cc(O)c(O)c(O)c1 [OG, octyl gallate] here?
Its value is “up to 2 log.u”.

And the IC50 ([10]; Huh-7)?
Its IC50 is 6.21 µM.

And the “inhibition of FMDV production” value [11]?
Its value is “totally ineffective”.

Which virus inhibition [10] does the source give for CCCOC(=O)c1cc(O)c(O)c(O)c1 [PG, propyl gallate] here?
The virus inhibition was “unable to produce virus inhibition”.

And the “inhibition of FMDV production” value [11]?
The value was “totally ineffective”.

For O=C(O[C@@H]1Cc2c(O)cc(O)cc2O[C@@H]1c1ccc(O)c(O)c1)c1cc(O)c(O)c(O)c1 [epicatechin gallate], which SI [8] is on record?
The SI was 5,8.

What about the IC50 [8] of the same molecule?
The IC50 was 50.1 µM.

For O=C(O)c1cc(O)c(O)c(O)c1 [gallic acid], which SI [8] is on record?
The SI was 6,2.

And the IC50 [8]?
The IC50 was 40.3 µM.

What about the virus inhibition [10] of the same molecule?
Its virus inhibition is “unable to produce virus inhibition”.

What about the “inhibition of FMDV production” value [11] of the same molecule?
Its value is “totally ineffective”.
